Test results as given in patent US20020082391A1, “Human occludin, its uses and enhancement of drug absorption using occludin inhibitors” (priority 1996, published 2002).

T1: human occludin (human, UniProt Q16625 1-522)
T1 sequence: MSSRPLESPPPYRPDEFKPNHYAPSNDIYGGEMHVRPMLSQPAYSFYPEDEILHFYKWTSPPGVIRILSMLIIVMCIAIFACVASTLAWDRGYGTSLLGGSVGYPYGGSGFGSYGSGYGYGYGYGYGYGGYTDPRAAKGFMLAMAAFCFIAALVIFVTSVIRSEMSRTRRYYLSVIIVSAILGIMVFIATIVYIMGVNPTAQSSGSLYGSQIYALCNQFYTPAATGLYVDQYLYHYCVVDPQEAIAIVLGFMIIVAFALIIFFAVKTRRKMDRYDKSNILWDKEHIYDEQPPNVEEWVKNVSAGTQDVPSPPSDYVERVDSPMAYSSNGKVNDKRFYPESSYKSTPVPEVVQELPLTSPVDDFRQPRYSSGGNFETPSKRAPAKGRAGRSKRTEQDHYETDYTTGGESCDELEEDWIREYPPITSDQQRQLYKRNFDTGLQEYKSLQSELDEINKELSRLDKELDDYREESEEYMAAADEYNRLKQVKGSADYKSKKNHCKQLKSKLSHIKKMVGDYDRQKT


How the values were obtained:
[1] = system: occludin-transfected fibroblasts (Rat-1 cell clone); test: Cell adhesion (suspended cell aggregation) assay, occludin-transfected Rat-1 fibroblasts; type: cell-based; conditions: peptide at 100 μM
Experimental: For immunofluorescent localization studies, cells were grown on glass coverslips. […] MDCK cells were transfected and induced with sodium butyrate as described above and stable cells lines were plated and induced as described for immunoblots. Cells were washed with PBS, fixed in 1% paraformaldehyde in PBS, extracted with 0.1% Triton-X 100 and quenched with 50 mM NH4Cl in PBS. In experiments to test the accessibility to the anti-peptide #1 antibody, incubation of the primary antibody was performed without permeabilization of cells with Triton-X 100. […] Cell Adhesion Assay Adhesion of stably transfected cell lines was measured by a modification of the procedure described by Wesseling, J., et al., Mol. Biol. Cell 7:565-577 (1996). […] After 30 minutes, cells were mechanically dissociated, counted and resuspended at a concentration of 2.5×10^5 cells/ml in Ca^2+-Mg^2+-free PBS, 1 mM EDTA and 0.1 mg/ml DNAse. […] At each time point, the number of particles in two 175 ul aliquot of each tube was determined in a Coulter Counter (Hialeah, FL). […] 100% of cells were single at the beginning of all assays, as determined by phase-contrast microscopy. […]
The ability of transfected occludin to confer adhesion onto fibroblast cell lines was assessed using a suspended cell aggregation assay (Wesseling, J., et al., Mol. Biol. Cell 7: 565-577 (1996)). […]

[2] = system: Caco-2 cells; test: Transepithelial electrical resistance of Caco-2 monolayers after low calcium medium; type: cell-based, human; conditions: Caco-2, peptides at final concentration 100 μM, FIG. 2
Experimental: FIG. 2 is a graph showing inhibition of occludin-dependent intercellular adhesion using extracellular loop peptides corresponding to the N-terminal half of occludin extracellular loop #1 (peptide 1, SEQ ID NO 3) and the C-terminal half of extracellular loop #1 (peptide 2, SEQ ID NO 4) compared with an irrelevant peptide (peptide 3, SEQ ID NO 6). Caco-2 cells were plated on Falcon transwell cell culture inserts in DMEM supplemented with 10% fetal bovine serum and allowed to attach for 24 hours. Confluent monolayers were washed three times with calcium- and magnesium-free phosphate buffered saline and incubated in low calcium medium (supplemented with 5% dialyzed fetal bovine serum) for 24 hours. Transepithelial electrical ressitance was measured (time 0) and an equal volume of 2× DMEM/20% fetal bovine serum was added to all wells. To some wells, peptides were added with the fresh media. All peptides were added to a final concentration of 100 μM; transepithelial electrical resistance was measured in 3 wells of each treatment condition. Symbols represent the mean and standard deviation of each measurement.
Introduction of occludin into fibroblasts causes them to become adhesive. […] FIG. 2 provides data showing this same peptide inhibits transmonolayer electrical resistance in cultured human colonic epithelial cells. Thus, the peptides are occludin inhibitors.

[3] = system: occludin-transfected fibroblasts (NRK cell clone, N2occ cells); test: Cell adhesion (suspended cell aggregation) assay, occludin-transfected NRK fibroblasts (N2occ); type: cell-based, rat; conditions: for inhibition of occludin-induced adhesion: NRK cell clone, peptide at 100 μM, 80 minutes
Experimental: Peptides were added in equal volumes of PBS at the start of the incubation period; extent of aggregation is shown after 80 minutes of incubation. Loop peptides represent contiguous sequences in the first extracellular loop; the internal peptide has the same pI as loop peptide #1. Peptide sequences are given in the Examples section. One of three experiments with identical results is shown.
For immunofluorescent localization studies, cells were grown on glass coverslips. […] MDCK cells were transfected and induced with sodium butyrate as described above and stable cells lines were plated and induced as described for immunoblots. Cells were washed with PBS, fixed in 1% paraformaldehyde in PBS, extracted with 0.1% Triton-X 100 and quenched with 50 mM NH4Cl in PBS. In experiments to test the accessibility to the anti-peptide #1 antibody, incubation of the primary antibody was performed without permeabilization of cells with Triton-X 100. Cells were blocked for 1 hour in PBS plus 2% goat serum, incubated in primary antibodies (anti-VSV-G at 10 ug/ml, guinea pig anti-occludin at 1:250, and anti-ZO-1 at 1:300; affinity-purified anti-peptide #1 antibody at 1:10) for 1 hour, washed and incubated in affinity-purified secondary antibodies (1:100) for 1 hour. Cells were washed, dipped in H2O and mounted in Vectashield (Vector Laboratories). The samples were examined with a Nikon Microfot-FX epifluorescence microscope; photographs were taken with TMAX400 film (Kodak, Rochester, NY) using the automatic exposure setting. Cell Adhesion Assay Adhesion of stably transfected cell lines was measured by a modification of the procedure described by Wesseling, J., et al., Mol. Biol. Cell 7:565-577 (1996). Cell lines were plated and induced with sodium butyrate as described above. Cell layers were rinsed twice with Ca^2+-Mg^2+-free PBS and then incubated for 30 minutes in Ca^2+-Mg^2+-free PBS plus 1 mM EDTA and 0.1 mg/ml DNAse. After 30 minutes, cells were mechanically dissociated, counted and resuspended at a concentration of 2.5×10^5 cells/ml in Ca^2+-Mg^2+-free PBS, 1 mM EDTA and 0.1 mg/ml DNAse. For each condition, the adhesion assay was performed in duplicate in two 50-ml conical tubes on a rotating platform at 80 rpm at 25° C. At each time point, the number of particles in two 175 ul aliquot of each tube was determined in a Coulter Counter (Hialeah, FL). The amount of adhesion was represented by Nt/N0, where N0 was the initial number of particles in each sample (the starting number of single cells), and Nt was the number at each time point. 100% of cells were single at the beginning of all assays, as determined by phase-contrast microscopy. Some experiments were performed in the presence of the peptides described above.
The ability of transfected occludin to confer adhesion onto fibroblast cell lines was assessed using a suspended cell aggregation assay (Wesseling, J., et al., Mol. Biol. Cell 7: 565-577 (1996)). All cells were counted as single particles at the beginning of the assay and any decrease in the fraction of particles over the 80 minute assay was the result of aggregates which are excluded by the Coulter Counter. Aggregation was qualitatively confirmed by light microscopic inspection and correlated with results quantified by the Coulter Counter. Immunofluorescence confirmed that ZO-1 and occludin are clustered between adherent cells after the 80 minute assay. […]

[4] = biological target: T1, human occludin; test: cell-based or functional assay

Molecule	inhibition of occludin-induced adhesion [1]	inhibition of transepithelial (transmonolayer) electrical resistance [2]	inhibition of occludin-induced adhesion [3]	reversal of adhesion ([3]; peptide at 10 μM)	Ki ([3]; fibroblast adhesion assay, peptides tested at 1, 10 and 100 μM, read-out: apparent Ki (inhibition of adhesion)) [µM]	inhibiting occludin-dependent cell adhesion ([3]; same concentration range (1, 10 and 100 μM))	apparent Ki for inhibition of occludin-induced adhesion [4] [µM]
CDRGYGTSLLGGSVGYPYGGSGFG [peptide #1]	completely inhibited adhesion	inhibition	completely inhibited adhesion	approximately half			
CSYGSGYGYGYGYGYGYGGYTDPR [peptide #2]	completely inhibited adhesion	inhibition	completely inhibited adhesion		10 to 100		
NHYAPSNDIYGGEMVHRPML (peptide construct used in experiments) [internal occludin peptide, reference compound]						ineffective	
CDRGYGTSLLGGSVGYPYGGSGFG [peptide #1 (N-terminal half of occludin extracellular loop #1)]							~10
